Reference: patent publication US8835429B2, “Pyrimidine compounds, their use as mTOR kinase and Pl3 kinase inhibitors, and their syntheses” (Wyeth LLC, priority 2009, dated 2014)

What was measured:
MDA468 = test: In vitro cell growth assay (MTS), MDA468; assay type: cell-based; conditions: 72 h, human breast line MDA468, three days after drug treatment, read-out: MDA IC50
PI3K-gamma = PI3K-gamma (Homo sapiens, UniProt P48736); test: PI3K-gamma fluorescence polarization assay; assay type: biochemical; conditions: 20 μM PIP2, 25 μM ATP; read-out: PI3Kγ IC50
PI3K-gamma, sequence (P48736 whole entry, species assumed): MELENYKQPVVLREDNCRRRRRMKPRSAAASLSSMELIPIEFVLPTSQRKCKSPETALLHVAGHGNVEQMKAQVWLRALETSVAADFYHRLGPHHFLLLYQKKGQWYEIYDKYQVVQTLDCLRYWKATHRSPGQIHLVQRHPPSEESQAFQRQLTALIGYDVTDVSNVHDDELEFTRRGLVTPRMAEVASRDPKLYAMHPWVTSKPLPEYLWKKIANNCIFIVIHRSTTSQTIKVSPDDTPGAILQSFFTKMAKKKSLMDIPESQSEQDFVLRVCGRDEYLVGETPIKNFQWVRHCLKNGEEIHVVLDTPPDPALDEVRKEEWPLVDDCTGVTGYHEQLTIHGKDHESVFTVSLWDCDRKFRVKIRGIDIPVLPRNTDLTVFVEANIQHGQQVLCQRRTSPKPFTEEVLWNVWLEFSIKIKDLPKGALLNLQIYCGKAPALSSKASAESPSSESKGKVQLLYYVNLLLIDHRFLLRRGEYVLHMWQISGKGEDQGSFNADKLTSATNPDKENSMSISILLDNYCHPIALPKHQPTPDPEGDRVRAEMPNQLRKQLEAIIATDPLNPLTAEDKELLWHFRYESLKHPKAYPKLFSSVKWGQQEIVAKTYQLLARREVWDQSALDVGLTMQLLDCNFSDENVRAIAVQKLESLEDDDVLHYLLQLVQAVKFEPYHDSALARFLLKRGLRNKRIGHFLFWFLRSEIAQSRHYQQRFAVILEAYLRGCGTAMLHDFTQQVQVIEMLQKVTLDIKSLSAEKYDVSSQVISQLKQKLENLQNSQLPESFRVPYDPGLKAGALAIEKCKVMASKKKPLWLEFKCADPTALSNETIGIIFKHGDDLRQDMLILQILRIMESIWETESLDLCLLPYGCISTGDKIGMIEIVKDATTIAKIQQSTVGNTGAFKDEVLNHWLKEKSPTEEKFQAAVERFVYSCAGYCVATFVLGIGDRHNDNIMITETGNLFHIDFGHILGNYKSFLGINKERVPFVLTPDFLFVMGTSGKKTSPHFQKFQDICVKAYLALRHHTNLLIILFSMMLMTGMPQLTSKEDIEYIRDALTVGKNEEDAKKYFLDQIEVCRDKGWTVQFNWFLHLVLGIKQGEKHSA
Experimental: The reaction buffer was 20 mM HEPES, pH 7.5, 2 mM MgCl2, 0.05% CHAPS; and 0.01% βME (added fresh). The stop/detection buffer was 100 mM HEPES, pH 7.5, 4 mM EDTA, 0.05% CHAPS; ATP 20 mM in water; PIP2 (diC8, Echelon, Salt Lake City Utah cat #P-4508) 1 mM in water (MW=856.5). The GST-GRP was 1.75 mg/mL or 1.4 mg/mL in 10% glycerol. The red detector (TAMRA) was 2.5 μM. Nunc 384-well black polypropylene fluorescent plates were used for PI3K assays.
The assay is run by placing 5 μL of diluted enzyme per well, then 5 μL of diluted compound (or 9.5 μL enzyme then 0.5 μL compound in DMSO) is added and mixed. Then, 10 μL substrate is added to start the reaction. The samples are incubated 30-60 minutes, then the reaction is stopped by adding 20 μL stop/detector mix. PI3K is diluted with reaction buffer (e.g., 5 μL or 7.5 μL PI3K into 620 μL reaction buffer), and 5 μL of diluted enzyme is used per well. A 5 μL portion of reaction buffer or of drug diluted in buffer (e.g., 4 μL/100 so final DMSO is 1% in reaction) is added to each. Pipetting up and down mixes the samples. Alternatively, the enzyme can be diluted to 1215 μL. In this case 9.8 μL is added per well and 0.2 μL compound is added in DMSO.
To prepare 1 mL of substrate solution, 955 μL reaction buffer, 40 μL PIP2, and 2.5 μL ATP are mixed. 10 μL of substrate is added to each well to start the reaction. […] The stop/detector mix is prepared by mixing 4 μL red detector and 1.6 μL or 2.0 μL GST-GRP with 1 mL stop buffer, which results in 10 nM probe and 70 nM GST-GRP. 20 μL of the stop/detector mix is added to each well to stop the reaction. The plates are read after 30-90 minutes keeping the red probe solutions dark. For the zero time point, stop/detector mix is added to the enzyme just before adding substrate. For an extra control, stop/detector mix is added to buffer (no enzyme) and substrate or to just buffer (no substrate). […] The recommended reaction has 0.06 μL per 20 μL (0.015 μg/20 μL) or 0.01125 μg/15 μL or 0.75 μg/mL.
Plates are read on machines with filters for TAMRA. The units are mP with no enzyme controls reading app 190-220 mP units. Fully active enzyme reduces fluorescence polarization down to 70-100 mP after 30 minutes. An active compound raises the mP values halfway to control or to 120-150 mP units.

mTOR = mTOR (Homo sapiens, UniProt P42345); test: mTOR enzyme assay (DELFIA, purified FLAG-TOR, His6-S6K substrate); assay type: biochemical; design: FLAG; conditions: 100 μM ATP, 2 hours
mTOR, sequence (P42345 1360-2549 limits assumed): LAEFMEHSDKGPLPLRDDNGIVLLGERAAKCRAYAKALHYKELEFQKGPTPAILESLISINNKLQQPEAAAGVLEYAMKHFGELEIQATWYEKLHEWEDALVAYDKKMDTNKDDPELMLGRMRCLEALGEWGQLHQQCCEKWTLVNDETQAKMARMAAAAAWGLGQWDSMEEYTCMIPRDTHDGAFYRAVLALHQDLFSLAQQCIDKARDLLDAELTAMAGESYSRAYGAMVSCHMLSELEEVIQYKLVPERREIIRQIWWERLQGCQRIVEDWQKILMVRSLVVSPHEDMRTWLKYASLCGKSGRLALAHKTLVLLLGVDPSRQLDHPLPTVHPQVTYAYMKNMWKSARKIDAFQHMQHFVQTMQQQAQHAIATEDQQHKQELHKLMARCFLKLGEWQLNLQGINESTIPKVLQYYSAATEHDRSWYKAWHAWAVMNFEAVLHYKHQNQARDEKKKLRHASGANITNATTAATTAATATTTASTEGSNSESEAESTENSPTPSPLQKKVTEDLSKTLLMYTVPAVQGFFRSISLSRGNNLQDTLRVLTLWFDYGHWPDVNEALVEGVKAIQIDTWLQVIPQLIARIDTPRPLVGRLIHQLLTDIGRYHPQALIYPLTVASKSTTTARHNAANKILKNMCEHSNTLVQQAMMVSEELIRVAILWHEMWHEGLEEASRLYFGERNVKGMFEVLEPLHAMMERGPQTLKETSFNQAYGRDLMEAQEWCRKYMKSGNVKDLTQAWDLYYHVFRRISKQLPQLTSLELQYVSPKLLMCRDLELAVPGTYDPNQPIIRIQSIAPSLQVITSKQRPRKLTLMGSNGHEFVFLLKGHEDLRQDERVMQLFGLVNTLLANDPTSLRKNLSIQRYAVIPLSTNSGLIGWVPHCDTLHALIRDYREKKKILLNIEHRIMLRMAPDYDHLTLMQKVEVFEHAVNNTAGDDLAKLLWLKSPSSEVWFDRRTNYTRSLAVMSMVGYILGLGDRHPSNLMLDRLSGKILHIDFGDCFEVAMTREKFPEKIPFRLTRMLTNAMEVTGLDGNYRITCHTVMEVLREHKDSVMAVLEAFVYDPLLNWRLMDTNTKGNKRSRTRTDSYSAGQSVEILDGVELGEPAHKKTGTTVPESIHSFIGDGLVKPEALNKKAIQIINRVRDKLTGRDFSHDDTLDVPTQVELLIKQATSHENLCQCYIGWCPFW

PI3K-alpha = PI3K-alpha (Homo sapiens, UniProt P42336); test: PI3K-alpha fluorescence polarization assay; assay type: biochemical; conditions: 20 μM PIP2, 25 μM ATP; read-out: PI3Kα IC50
PI3K-alpha, sequence (P42336 whole entry, species assumed): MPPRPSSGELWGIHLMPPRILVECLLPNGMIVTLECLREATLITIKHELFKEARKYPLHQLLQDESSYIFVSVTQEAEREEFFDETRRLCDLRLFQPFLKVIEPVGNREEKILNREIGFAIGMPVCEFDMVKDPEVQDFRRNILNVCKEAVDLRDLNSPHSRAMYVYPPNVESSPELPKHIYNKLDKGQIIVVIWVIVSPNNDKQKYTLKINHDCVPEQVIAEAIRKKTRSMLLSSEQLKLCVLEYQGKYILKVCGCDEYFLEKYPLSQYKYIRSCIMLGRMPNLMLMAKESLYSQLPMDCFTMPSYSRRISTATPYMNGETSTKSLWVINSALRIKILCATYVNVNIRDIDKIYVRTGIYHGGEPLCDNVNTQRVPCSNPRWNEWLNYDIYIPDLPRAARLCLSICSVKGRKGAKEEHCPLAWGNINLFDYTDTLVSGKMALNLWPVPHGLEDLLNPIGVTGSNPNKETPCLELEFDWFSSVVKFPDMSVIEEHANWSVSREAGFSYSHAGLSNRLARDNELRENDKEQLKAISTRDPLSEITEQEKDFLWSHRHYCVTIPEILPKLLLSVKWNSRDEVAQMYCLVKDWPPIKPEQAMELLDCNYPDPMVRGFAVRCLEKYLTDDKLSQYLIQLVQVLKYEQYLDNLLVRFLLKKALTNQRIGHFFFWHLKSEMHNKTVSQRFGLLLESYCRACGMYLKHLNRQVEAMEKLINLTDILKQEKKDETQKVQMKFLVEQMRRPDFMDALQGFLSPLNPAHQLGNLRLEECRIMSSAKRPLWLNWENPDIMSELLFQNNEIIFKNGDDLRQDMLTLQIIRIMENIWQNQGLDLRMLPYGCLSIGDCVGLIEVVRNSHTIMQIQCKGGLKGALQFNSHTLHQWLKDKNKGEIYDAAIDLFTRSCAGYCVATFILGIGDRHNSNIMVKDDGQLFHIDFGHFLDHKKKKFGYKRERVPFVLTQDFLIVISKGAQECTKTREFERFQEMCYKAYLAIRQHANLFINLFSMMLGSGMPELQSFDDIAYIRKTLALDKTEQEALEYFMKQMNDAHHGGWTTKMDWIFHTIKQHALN
PI3K-alpha, sequence (P27986 whole entry partner, species assumed): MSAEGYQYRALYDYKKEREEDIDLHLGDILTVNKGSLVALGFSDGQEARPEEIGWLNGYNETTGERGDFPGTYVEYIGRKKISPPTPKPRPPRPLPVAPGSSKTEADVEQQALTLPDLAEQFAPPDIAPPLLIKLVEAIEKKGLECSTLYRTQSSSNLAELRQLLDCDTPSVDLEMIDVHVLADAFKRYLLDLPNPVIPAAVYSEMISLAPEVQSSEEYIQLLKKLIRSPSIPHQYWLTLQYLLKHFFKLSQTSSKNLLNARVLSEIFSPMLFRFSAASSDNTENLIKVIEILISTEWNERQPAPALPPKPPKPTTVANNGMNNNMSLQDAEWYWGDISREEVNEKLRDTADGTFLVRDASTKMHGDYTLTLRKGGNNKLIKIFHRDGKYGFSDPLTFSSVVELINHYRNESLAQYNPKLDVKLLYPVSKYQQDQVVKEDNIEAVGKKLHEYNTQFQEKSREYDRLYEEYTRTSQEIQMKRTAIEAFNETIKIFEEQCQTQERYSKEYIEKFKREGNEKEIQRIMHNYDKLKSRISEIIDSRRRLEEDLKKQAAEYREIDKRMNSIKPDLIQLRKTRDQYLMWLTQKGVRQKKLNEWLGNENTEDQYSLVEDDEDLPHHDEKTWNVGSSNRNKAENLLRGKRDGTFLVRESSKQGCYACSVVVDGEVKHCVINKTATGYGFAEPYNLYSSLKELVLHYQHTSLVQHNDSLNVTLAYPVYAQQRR
Procedure, shortened: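 PIP2 (diC8) and ATP substrate with PI3K in 20 mM HEPES pH 7.5, 2 mM MgCl2, 0.05% CHAPS, 0.01% βME; 1% DMSO final; 30–60 min reaction. Stopped with EDTA plus GST-GRP (70 nM) and TAMRA probe (10 nM); FP (mP) read after 30–90 min, with no-enzyme controls.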

LNCap = test: In vitro cell growth assay (MTS), LNCap; assay type: cell-based; conditions: LNCaP, 72 h, human prostate line, three days after drug treatment

SMILES: C[C@@H]1COCCN1c1cc(N2C3CCC2COC3)nc(-c2ccc(NC(=O)Nc3cccnc3)cc2)n1 [1-(4-{4-[(3R)-3-methylmorpholin-4-yl]-6-(3-oxa-8-azabicyclo[3.2.1]oct-8-yl)pyrimidin-2-yl}phenyl)-3-pyridin-3-ylurea]
- IC50 (MDA468): 80 nM
- IC50 (PI3K-gamma): 7470 nM
- IC50 (mTOR): 0.77 nM
- IC50 (PI3K-alpha): 1060 nM
- IC50 (LNCap): 20 nM

SMILES: C[C@@H]1COCCN1c1cc(N2C3CCC2COC3)nc(-c2ccc(NC(=O)Nc3ccncc3)cc2)n1 [1-(4-{4-[(3R)-3-methylmorpholin-4-yl]-6-(3-oxa-8-azabicyclo[3.2.1]oct-8-yl)pyrimidin-2-yl}phenyl)-3-pyridin-4-ylurea]
- IC50 (MDA468): 5 nM
- IC50 (PI3K-gamma): 778 nM
- IC50 (mTOR): 0.645 nM
- IC50 (PI3K-alpha): 314 nM
- IC50 (LNCap): 1 nM

SMILES: C[C@@H]1COCCN1c1cc(N2C3CCC2COC3)nc(-c2ccc(NC(=O)Nc3ccc(C(=O)N4CCN(C)CC4)cc3)cc2)n1 [1-(4-{4-[(3R)-3-methylmorpholin-4-yl]-6-(3-oxa-8-azabicyclo[3.2.1]oct-8-yl)pyrimidin-2-yl}phenyl)-3-{4-[(4-methylpiperazin-1-yl)carbonyl]phenyl}urea]
- IC50 (MDA468): 0.8 nM
- IC50 (PI3K-gamma): 1130 nM
- IC50 (mTOR): 0.75 nM
- IC50 (PI3K-alpha): 78 nM
- IC50 (LNCap): ≤ 0.8 nM

SMILES: C[C@@H]1COCCN1c1cc(N2C3CCC2COC3)nc(-c2ccc(NC(=O)Nc3ccc(CN4CCN(C)CC4)cc3)cc2)n1 [1-(4-{4-[(3R)-3-methylmorpholin-4-yl]-6-(3-oxa-8-azabicyclo[3.2.1]oct-8-yl)pyrimidin-2-yl}phenyl)-3-{4-[(4-methylpiperazin-1-yl)methyl]phenyl}urea]
- IC50 (MDA468): 12 nM
- IC50 (PI3K-gamma): 8480 nM
- IC50 (mTOR): 1.2 nM
- IC50 (PI3K-alpha): 1300 nM
- IC50 (LNCap): 6 nM

SMILES: CCNC(=O)Nc1ccc(-c2nc(CN(C)C)cc(N3C4CCC3COC4)n2)cc1 [1-(4-{4-[(dimethylamino)methyl]-6-(3-oxa-8-azabicyclo[3.2.1]oct-8-yl)pyrimidin-2-yl}phenyl)-3-ethylurea]
- IC50 (MDA468): 3000 nM
- IC50 (PI3K-gamma): 12600 nM
- IC50 (mTOR): 40 nM
- IC50 (PI3K-alpha): 6240 nM
- IC50 (LNCap): 1100 nM

SMILES: CNC(=O)Nc1ccc(-c2nc(CN(C)C)cc(N3C4CCC3COC4)n2)cc1 [1-(4-{4-[(dimethylamino)methyl]-6-(3-oxa-8-azabicyclo[3.2.1]oct-8-yl)pyrimidin-2-yl}phenyl)-3-methylurea]
- IC50 (MDA468): 7000 nM
- IC50 (PI3K-gamma): > 10000 nM
- IC50 (mTOR): 77 nM
- IC50 (PI3K-alpha): 8000 nM
- IC50 (LNCap): 3600 nM

SMILES: CN(C)Cc1cc(N2C3CCC2COC3)nc(-c2ccc(NC(=O)Nc3cccnc3)cc2)n1 [1-(4-{4-[(dimethylamino)methyl]-6-(3-oxa-8-azabicyclo[3.2.1]oct-8-yl)pyrimidin-2-yl}phenyl)-3-pyridin-3-ylurea]
- IC50 (MDA468): 1000 nM
- IC50 (PI3K-gamma): > 10000 nM
- IC50 (mTOR): 10.8 nM
- IC50 (PI3K-alpha): 3160 nM
- IC50 (LNCap): 600 nM

SMILES: CC(C)N1CCN(C(=O)c2ccc(NC(=O)Nc3ccc(-c4nc(N5C6CCC5COC6)cc(N5CCOC[C@H]5C)n4)cc3)cc2)CC1 [1-(4-{[4-(1-methylethyl)piperazin-1-yl]carbonyl}phenyl)-3-(4-{4-[(3R)-3-methylmorpholin-4-yl]-6-(3-oxa-8-azabicyclo[3.2.1]oct-8-yl)pyrimidin-2-yl}phenyl)urea]
- IC50 (MDA468): 0.8 nM
- IC50 (PI3K-gamma): 1200 nM
- IC50 (mTOR): 0.6 nM
- IC50 (PI3K-alpha): 123 nM
- IC50 (LNCap): ≤ 0.8 nM

SMILES: CC(C)N1CCN(C(=O)c2ccc(NC(=O)Nc3ccc(-c4nc(C5CCOCC5)cc(N5C6CCC5COC6)n4)cc3)cc2)CC1 [1-(4-{[4-(1-methylethyl)piperazin-1-yl]carbonyl}phenyl)-3-{4-[4-(3-oxa-8-azabicyclo[3.2.1]oct-8-yl)-6-(tetrahydro-2H-pyran-4-yl)pyrimidin-2-yl]phenyl}urea]
- IC50 (MDA468): 0.8 nM
- IC50 (PI3K-gamma): 3210 nM
- IC50 (mTOR): 0.295 nM
- IC50 (PI3K-alpha): 353 nM
- IC50 (LNCap): ≤ 0.8 nM

SMILES: O=C(Nc1ccc(-c2nc(N3C4CCC3COC4)cc(N3C4CCC3COC4)n2)cc1)Nc1cccnc1 [1-[4-(4,6-di-3-oxa-8-azabicyclo[3.2.1]oct-8-ylpyrimidin-2-yl)phenyl]-3-pyridin-3-ylurea]
- IC50 (MDA468): 5 nM
- IC50 (PI3K-gamma): 4490 nM
- IC50 (mTOR): 0.58 nM
- IC50 (PI3K-alpha): 1130 nM
- IC50 (LNCap): 0.8 nM

SMILES: CN1CCN(c2ccc(NC(=O)Nc3ccc(-c4nc(N5C6CCC5COC6)cc(N5C[C@H]6C[C@@H]5CO6)n4)cc3)cc2)CC1 [1-[4-(4-methylpiperazin-1-yl)phenyl]-3-(4-{4-[(1R,4R)-2-oxa-5-azabicyclo[2.2.1]hept-5-yl]-6-(3-oxa-8-azabicyclo[3.2.1]oct-8-yl)pyrimidin-2-yl}phenyl)urea]
- IC50 (MDA468): 48 nM
- IC50 (PI3K-gamma): 8710 nM
- IC50 (mTOR): 7.55 nM
- IC50 (PI3K-alpha): 2090 nM
- IC50 (LNCap): 40 nM

SMILES: CN1CCN(c2ccc(NC(=O)Nc3ccc(-c4nc(N5C6CCC5COC6)cc(N5C[C@@H]6C[C@H]5CO6)n4)cc3)cc2)CC1 [1-[4-(4-methylpiperazin-1-yl)phenyl]-3-(4-{4-[(1S,4S)-2-oxa-5-azabicyclo[2.2.1]hept-5-yl]-6-(3-oxa-8-azabicyclo[3.2.1]oct-8-yl)pyrimidin-2-yl}phenyl)urea]
- IC50 (MDA468): 18 nM
- IC50 (PI3K-gamma): ≥ 10000 nM
- IC50 (mTOR): 9.75 nM
- IC50 (PI3K-alpha): 1780 nM
- IC50 (LNCap): 10 nM

SMILES: CN1CCN(c2ccc(NC(=O)Nc3ccc(-c4nc(C5CCOCC5)cc(N5C6CCC5COC6)n4)cc3)cc2)CC1 [1-[4-(4-methylpiperazin-1-yl)phenyl]-3-{4-[4-(3-oxa-8-azabicyclo[3.2.1]oct-8-yl)-6-(tetrahydro-2H-pyran-4-yl)pyrimidin-2-yl]phenyl}urea]
- IC50 (MDA468): 4 nM
- IC50 (PI3K-gamma): 4730 nM
- IC50 (mTOR): 0.855 nM
- IC50 (PI3K-alpha): 1060 nM
- IC50 (LNCap): ≤ 0.8 nM

SMILES: CN1CCN(c2ccc(NC(=O)Nc3ccc(-c4nc(NC5CCOCC5)cc(N5C6CCC5COC6)n4)cc3)cc2)CC1 [1-[4-(4-methylpiperazin-1-yl)phenyl]-3-{4-[4-(3-oxa-8-azabicyclo[3.2.1]oct-8-yl)-6-(tetrahydro-2H-pyran-4-ylamino)pyrimidin-2-yl]phenyl}urea]
- IC50 (MDA468): 10 nM
- IC50 (PI3K-gamma): 9230 nM
- IC50 (mTOR): 7.5 nM
- IC50 (PI3K-alpha): 2260 nM
- IC50 (LNCap): 7 nM

SMILES: CN1CCN(c2ccc(NC(=O)Nc3ccc(-c4nc(NCCS(C)(=O)=O)cc(N5C6CCC5COC6)n4)cc3)cc2)CC1 [1-[4-(4-methylpiperazin-1-yl)phenyl]-3-{4-[4-{[2-(methylsulfonyl)ethyl]amino}-6-(3-oxa-8-azabicyclo[3.2.1]oct-8-yl)pyrimidin-2-yl]phenyl}urea]
- IC50 (MDA468): 19 nM
- IC50 (PI3K-gamma): ≥ 10000 nM
- IC50 (mTOR): 14.5 nM
- IC50 (PI3K-alpha): 1840 nM
- IC50 (LNCap): 17 nM

SMILES: CN1CCN(c2ccc(NC(=O)Nc3ccc(-c4nc(N5C6CCC5COC6)c(Cl)c(N5C6CCC5COC6)n4)cc3)cc2)CC1 [1-[4-(5-chloro-4,6-di-3-oxa-8-azabicyclo[3.2.1]oct-8-ylpyrimidin-2-yl)phenyl]-3-[4-(4-methylpiperazin-1-yl)phenyl]urea]
- IC50 (MDA468): 210 nM
- IC50 (PI3K-gamma): 1020 nM
- IC50 (mTOR): 0.505 nM
- IC50 (PI3K-alpha): 998 nM
- IC50 (LNCap): 65 nM

SMILES: O=C(Nc1ccc(-c2nc(N3C4CCC3COC4)c(Cl)c(N3C4CCC3COC4)n2)cc1)Nc1cccnc1 [1-[4-(5-chloro-4,6-di-3-oxa-8-azabicyclo[3.2.1]oct-8-ylpyrimidin-2-yl)phenyl]-3-pyridin-3-ylurea]
- IC50 (MDA468): 220 nM
- IC50 (PI3K-gamma): 932 nM
- IC50 (mTOR): 0.655 nM
- IC50 (PI3K-alpha): 922 nM
- IC50 (LNCap): 48 nM
